In patent US12054497B2, “Substituted heterocyclic fused cyclic compound, preparation method therefor and pharmaceutical use thereof” (GENFLEET THERAPEUTICS (SHANGHAI) INC., priority 2019, dated 2024):
Read-outs that look alike come from different tables or passages of the source.

Assays:
Assay type in all cases: cell-based, human
[1] = test system: phosphorylated ERK in MIA PaCa2 cells with Kras G12C mutation; assay: p-ERK HTRF assay for cells (Test Example 2); conditions: MIA PaCa2 cells, 2 hours with compound, read-out: p-ERK IC50
Protocol: MIA PaCa2 was a human pancreatic carcinoma cell line with Kras G12C mutation, which was cultured in a DMEM with 10% FBS and 2.5% Horse serum. Cells in logarithmic growth phase were detached with trypsin and EDTA, collected and counted, and 2.5E4 cells were seeded to a 96-well cell culture plate and cultured overnight. 1000× stock solutions of compounds at a concentration gradient of 3.16 were prepared by using DMSO, and diluted 200 times by the medium into 5× stock solutions of compounds. On the day after cell seeding, 5× stock solution of a compound was added to each well of cell culture plate, with a final concentration being 1× and a DMSO content of 0.1%. DMSO was used as the control. The residual culture was removed after culturing for 2 hours with the compound. To each well, 50 ul of cell lysis buffer was added and mixed uniformly and incubation for 30 minutes. Subsequently, 16 ul of mixed solution was transferred to a 96-well plate with white unclear bottom, and 16 ul of cell lysis buffer was added to the blank control group. After the completion of transfer, 4 ul of p-ERK HTRF antibody mixture was added to each well, and a value of fluorescence intensity was read after incubation for 4 hours. The inhibition rate (IR) of the compound was calculated by the following equation: IR (%)=(RLU control-RLU compound)/(RLU control−RLU blank)×100%. The value of IC50 was calculated by fitting a gradiently diluted concentration of the compound and the corresponding cell proliferation inhibition rate using a Prism 8 four-parameter method.

[2] = test system: NCI-H358 cells with Kras G12C mutation; assay: Cell proliferation inhibition experiment, 3D spheroid, CellTiter-Glo (Test Example 1); conditions: 5 days
Protocol: (§1) NCI-H358 was a human NSCLC cell line with Kras G12C mutation, which was cultured in a RPMI-1640 medium with 10% fetal bovine serum (FBS). A549 was a human lung adenocarcinoma cell line with Kras G12S mutation, which was cultured in an F-12K medium with 10% FBS. Cells in logarithmic growth phase were detached with trypsin and EDTA, collected and counted, and H358 was regulated to 1.8E4 cells/ml by using an RPMI-1640 medium with 2% FBS, while A549 was regulated to 8.9E3 cells/ml with an F-12K medium containing 2% FBS. 800 (45 μl) H358 cells and 400 (45 μl) A549 cells were seeded to 384-well spheroid plates, respectively, and cultured overnight to establish 3D cell models. 1000× stock solutions of compounds at a concentration gradient of 3.16 were prepared by using DMSO, and diluted 100 times by the medium with 2% FBS into 10× stock solutions of compounds. On the day after cell seeding, 5 μl of 10× stock solution of a compound was added to each well of cell culture plate, with a final concentration being 1× and a DMSO content of 0.1%. DMSO was used as the control, and the medium with 2% FBS was used as blank control group. After 5 days of cell culture with the compound, 25 μl of CellTiter-Glo working solution was added to each well, and mixed uniformly at 400 rpm and incubation for 30 minutes. After standing at room temperature for 30 minutes, 40 μl of mixed solution was transferred to a 384-well plate with white clear bottom. A value of luminescence was then read, and a cell proliferation inhibition rate (IR) (%)=(RLU control-RLU compound)/(RLU control−RLU blank)×100%. The value of IC50 was calculated by fitting a gradiently diluted concentration of the compound and the corresponding cell proliferation inhibition rate using a Prism 6 four-parameter method.

[3] = test system: A549 cells with Kras G12S mutation; assay: as above; conditions: 5 days
Protocol: as §1

[4] = test system: MIA PaCa-2 cells with Kras G12C mutation; assay: Cell proliferation inhibition experiment, 3D spheroid, CellTiter-Glo (Test Example 3); conditions: 5 days, read-out: MIA-PaCa2 IC50
Protocol: MIA PaCa-2 was a human pancreatic carcinoma cell line with Kras G12C mutation, which was cultured in a DMEM with 10% FBS and 2.5% Horse serum. A549 was a human lung adenocarcinoma cell line with Kras G12S mutation, which was cultured in an F-12K medium with 10% FBS. Cells in logarithmic growth phase were detached with trypsin and EDTA, collected and counted, and 200 MIA PaCa-2 cells and 400 A549 cells were seeded to 384-well spheroid plates, respectively, and cultured overnight to establish 3D cell models. 1000× stock solutions of compounds at a concentration gradient of 3.16 were prepared by using DMSO, and diluted 100 times by the medium into 10× stock solutions of compounds. On the day after cell seeding, 10× stock solution of a compound was added to each well of cell culture plate, with a final concentration being 1× and a DMSO content of 0.1%. DMSO was used as the control, and the medium was used as the blank. After 5 days of cell culture with the compound, 30 μl of CellTiter-Glo working solution was added to each well, and mixed uniformly and incubation for 30 minutes. After standing at room temperature for 30 minutes, 40 μl of mixed solution was transferred to a 384-well plate with white unclear bottom. A value of luminescence intensity was then read, and a cell proliferation inhibition rate (IR) (%)=(RLU control−RLU compound)/(RLU control−RLU blank)×100%. The value of IC50 was calculated by fitting a gradiently diluted concentration of the compound and the corresponding cell proliferation inhibition rate using an XLFit four-parameter method.

[5] = Homo sapiens, MIA PaCa-2, 120 h

SMILES	IC50 [2]	IC50 [3]	IC50 [4, 5]	IC50 ([3]; Homo sapiens, A549, 120 h)	IC50 ([2]; Homo sapiens, NCI-H358, 120 h)	further results
[2H]C([2H])([2H])N1C(=O)[C@H]2CN(C(=O)C=C)CCN2c2c1c(=O)n(-c1c(C(C)C)ncnc1C(C)C)c1c(F)c(-c3c(O)cccc3F)c(Cl)cc21 (atropisomer, axis not shown; (aR)) [Compound Z39-1, (4aR) -3-acryloyl-11-chloro-8-(4,6-diisopropylpyrimidin-5-yl)-9-fluoro-10-(2-fluoro-6-hydroxyphenyl)-6-(deuteromethyl-d3)-2,3,4,4a,6,8-hexahydro-1H-pyrazino[1′,2′,5]pyrazino[2,3-c]quinolin-5,7-dione]	0.0006 µM	> 30 µM	0.001 µM			IC50 ([1]; Homo sapiens, MIA PaCa-2, 2 h): 0.011 µM
C=CC(=O)N1CCN2c3c(c(=O)n(-c4c(C)ccnc4C(C)C)c4nc(-c5c(O)cccc5F)c(F)cc34)OC[C@H]2C1 (single isomer, unassigned) [Compound Z1-2]	0.198 µM			16.5 µM		
C=CC(=O)N1CCN2c3c(c(=O)n(-c4c(C)ccnc4C(C)C)c4nc(-c5c(O)cccc5F)c(F)cc34)N(CC)C(=O)[C@H]2C1 (single isomer, unassigned) [Compound Z30-1]	0.804 µM	> 30 µM				
C=CC(=O)N1CCN2c3c(c(=O)n(-c4c(C)ccnc4C(C)C)c4nc(-c5c(O)cccc5F)c(F)cc34)N(CC)C(=O)[C@H]2C1 (single isomer, unassigned) [Compound Z30-2]	0.047 µM	> 30 µM				IC50 [1]: 0.488 µM; IC50 [4]: 0.13 µM
C=CC(=O)N1C[C@@H]2C(=O)Nc3c(c4cc(F)c(-c5c(O)cccc5F)nc4n(-c4c(C)ccnc4C(C)C)c3=O)N2C[C@H]1C (single isomer, unassigned) [Compound Z35-1]	0.037 µM	> 30 µM				IC50 [1]: 0.249 µM
C=CC(=O)N1C[C@@H]2C(=O)Nc3c(c4cc(F)c(-c5c(O)cccc5F)nc4n(-c4c(C)ccnc4C(C)C)c3=O)N2C[C@H]1C (single isomer, unassigned) [Compound Z35-2]	0.006 µM	> 30 µM				IC50 [1]: 0.049 µM
C=CC(=O)N1CC2C(=O)N(C)c3c(c4cc(F)c(-c5c(O)cccc5F)nc4n(-c4c(C(F)(F)F)ccnc4C(C)C)c3=O)N2C[C@H]1C (single isomer, unassigned) [Compound Z49-1]	0.009 µM	9.42 µM	0.012 µM			IC50 ([1]; Homo sapiens, MIA PaCa-2, 2 h): 0.114 µM
C=CC(=O)N1CC2C(=O)N(C)c3c(c4cc(F)c(-c5c(O)cccc5F)nc4n(-c4c(C(F)(F)F)ccnc4C(C)C)c3=O)N2C[C@H]1C (single isomer, unassigned) [Compound Z49-2]	0.044 µM	> 30 µM				
C=CC(=O)N1CCN2c3c(cnc4c3CCN(c3c(C)ccc5[nH]ncc35)C4)OC[C@H]2C1 [Compound Z2, (R)-1-(3-(5-methyl-1H-indazol-4-yl)-1,2,3,4,8a,9,11,12-octahydropyrazino[1′,2′:4,5][1,4]oxazino[2,3-c][1,7]naphthyridin-10(8H)-yl)propyl-2-en-1-one]	0.773 µM	> 10 µM				
C=CC(=O)N1CCN2c3c(c(=O)n(-c4c(C)ccnc4C(C)C)c4nc(-c5c(O)cccc5F)c(F)cc34)N(C)C(=O)[C@H]2C1 [Compound Z9, (4aR)-3-acryloyl-11-fluoro-10-(2-fluoro-6-hydroxyphenyl)-8-(2-isopropyl-4-methylpyridin-3-yl)-6-methyl-2,3,4,4a,6,8-hexahydro-1H-pyrazino[1′,2′:4,5]pyrazino[2,3-c][1,8,8]naphthyridin-5,7-dione]			0.074 µM		0.032 µM	IC50 ([1]; Homo sapiens, MIA PaCa-2, 2 h): 0.187 µM
C=CC(=O)N1C[C@@H]2C(=O)N(C)c3c(c4cc(F)c(-c5c(O)cccc5F)nc4n(-c4nccnc4C(C)C)c3=O)N2C[C@H]1C [Compound Z22, (2R,4aR)-3-acryloyl-11-fluoro-10-(2-fluoro-6-hydroxyphenyl)-8-(3-isopropylpyrazin-2-yl)-2,6-dimethyl-2,3,4,4a,6,8-hexahydro-1H-pyrazino[1′,2′:4,5]pyrazino[2,3-c][1,8]naphthyridin-5,7-dione]			0.18 µM	> 30 µM	0.067 µM	
C=CC(=O)N1CCN2c3c(c(=O)n(-c4c(C)ccnc4C(C)C)c4nc(-c5c(O)cccc5F)c(F)cc34)OC[C@@H]2C1 [Compound Z28, (4aS)-3-acryloyl-11-fluoro-10-(2-fluoro-6-hydroxyphenyl)-8-(2-isopropyl-4-methylpyridin-3-yl)-1,2,3,4,4a,5-hexahydropyrazino[1′,2′:4,5][1,4]oxazino[2,3-c][1,8]naphthyridin-7(8H)-one]			0.234 µM	16.9 µM	0.09 µM	
C=CC(=O)N1CCN2c3c(c(=O)n(-c4c(C)ccnc4C(C)C)c4nc(-c5c(C)ccc6[nH]ncc56)c(F)cc34)OC[C@H]2C1 [Compound Z29, (4aR)-3-acryloyl-11-fluoro-8-(2-isopropyl-4-methylpyridin-3-yl)-10-(5-methyl-1H-indazol-4-yl)-1,2,3,4,4a,5-hexahydropyrazino[1′,2′:4,5][1,4]oxazino[2,3-c][1,8]naphthyridin-7(8H)-one]				21.8 µM	0.166 µM	
C=CC(=O)N1CCN2c3c(c(=O)n(-c4c(C5CC5)ncnc4C4CC4)c4nc(-c5c(F)cccc5OC)c(F)cc34)N(C)C(=O)[C@H]2C1 [Compound Z32, (4aR)-3-acryloyl-11-fluoro-10-(2-fluoro-6-methoxyphenyl)-8-(4,6-bicyclopropylpyrimidin-5-yl)-6-methyl-2,3,4,4a,6,8-hexahydro-1H-pyrazino[1′,2′:4,5]pyrazino[2,3-c][1,8]naphthyridin-5,7-dione]			0.17 µM	> 30 µM	0.064 µM	
C=CC(=O)N1C[C@@H]2C(=O)N(C)c3c(c4cc(F)c(-c5c(O)cccc5F)nc4n(-c4c(C(C)C)nn(C)c4C)c3=O)N2C[C@H]1C [Compound Z47, (2R,4aR)-3-acryloyl-11-fluoro-10-(2-fluoro-6-hydroxyphenyl)-8-(3-isopropyl-1,5-dimethyl-1H-pyrazol-4-yl)-2,6-dimethyl-2,3,4,4a,6,8-hexahydro-1H-pyrazino[1′,2′:4,5]pyrazino[2,3-c][1,8]naphthyridin-5,7-dione]			0.083 µM	> 30 µM	0.031 µM	
C=CC(=O)N1CCN2c3c(c(=O)n(-c4c(C5CC5)ncnc4C4CC4)c4nc(-c5c(O)cccc5F)c(Cl)cc34)N(C)C(=O)[C@H]2C1 [Compound Z72]						IC50 ([1]; Homo sapiens, MIA PaCa-2, 2 h): 0.106 µM
